# Measured values reported in patent US9695395B2, “Generation and maintenance of stem cells” (The Scripps Research Institute, priority 2008, dated 2017).
# What was measured:
# [1] = tested on: EpiSCs; assay: Conversion of EpiSCs to mESC-like state by chemical compounds (colony morphology, ALP, selection); assay type: cell-based, murine; conditions: for effect on EpiSCs under mESC culture condition supplemented with LIF: feeder cells, 0.5 μM A-83-01, 0.5 μM PD0325901, 0.1 μM PD173074, 3 μM CHIR99021 where present
# Description: EpiSCs differentiated in conventional mESC growth medium supplemented with LIF (bottom left); EpiSCs differentiated in conventional mESC growth medium supplemented with LIF and 0.5 μM MEK inhibitor PD0325901, 0.1 μM FGFR inhibitor PD173074 and 3 μM GSK3 inhibitor CHIR99021 (m/MFGi) (bottom right). […] EpiSCs were trypsinized to single cells, and plated on feeder cells under the mESC self-renewal condition with supplements of the indicated chemical compounds for about 4 days to induce conversion, followed by another 4 days of selection. The culture was subsequently replated and further selected and expanded for another two weeks, during which time stable clones were picked.
# To test this hypothesis, EpiSCs were trypsinized to single cells and plated under mESC self-renewal conditions, based on the notion that “converted” mESC-like cells within EpiSC colonies would be captured/selected and expanded under the conditions that promote self-renewal of mESCs but induce differentiation of EpiSCs. […] Given that the “spontaneous” conversion from EpiSCs to mESCs might be very inefficient, a stronger and more stringent differential self-renewal promoting and differentiation inducing condition might be required to select/capture and expand those “rare” converted mESC-like cells from EpiSCs (e.g. achieving cleaner phenotypic distinction and minimizing the overgrowth of differentiated EpiSCs).
# EpiSCs (line EpiSC-5, male) were maintained on irradiated CF1 MEFs in human ESC medium supplemented with 10 ng/ml bFGF as described previously (Tesar et al., Nature 448, 196-199, 2007). EpiSCs were passaged every 3-4 days with 1 mg/ml collagenase type IV (Invitrogen). The R1 mESCs were cultured on irradiated CF1 MEFs with conventional mESC growth media, which consist of Knockout DMEM (Invitrogen) supplemented with 20% KSR (Invitrogen), 0.1 mM 2-ME (Sigma-Aldrich), 2 mM L-glutamine (Invitrogen), 0.1 mM NEAA (Invitrogen), and 10^3 units/ml recombinant murine leukemia inhibitory factor (LIF) (ESGRO, Millipore). The mESCs and converted cells were passaged every 3 days as a single cell suspension using 0.05% trypsin/EDTA and seeded at 1.0×10^4 cells per cm^2 for routine culture.
# [2] = tested on: BMP receptors; conditions: Tojo et al., 2005; cited from earlier work
# [3] = tested on: riPSCs; assay: Maintaining the pluripotency of riPSCs in culture with small molecule combinations; assay type: cell-based, rat; conditions: 0.1 μM, added to the combination of PD0325901 and CHIR99021
# Description: FIG. 5A-B. The effects of different small molecule combinations on maintaining the pluripotency of riPSCs in culture. riPSCs were trypsinized into single cells and seeded into 6-well plate at the density of 10^3 cells per well and treated with different inhibitor combinations. Five days latter, ALP staining was performed to visualize the riPSC colonies (A). The ALP positive colonies for each condition were counted from ten random 40× visual fields and the relative colony number was summarized in (B).
# WB-F344, a diploid rat liver progenitor cell line (Grisham et al., Proc Soc Exp Biol Med 204, 270-279 (1993)), were transduced with Oct4, Sox2 and Klf4 by retroviruses and then split onto MEF feeder cells in the conventional mESC medium. Compact and alkaline phosphatase (ALP) positive ESC-like colonies were observed 10 days after transduction (the efficiency is about 0.4%) (FIG. 1A). […] Given the notion that small molecules can inhibit key differentiation-inducing pathways, we and others have previously identified and used small molecules to support mESC self-renewal in a more robust manner (Schugar et al., Gene Ther 15, 126-135 (2008); Xu et al., Nat Biotechnol 20, 1261-1264 (2002)). […]
structure (smiles),measurement,setting,value
"Cc1cccc(-c2nn(C(=S)Nc3ccccc3)cc2-c2ccnc3ccccc23)n1 [A-83-01, 3-(6-Methyl-2-pyridinyl)-N-phenyl-4-(4-quinolinyl)-1H-pyrazole-1-carbothioamide]",effect on EpiSCs under EpiSC/hESC culture condition supplemented with bFGF,[1]; 0.5 μM,induced rapid differentiation of EpiSCs
same,colonies that could self-renew and maintain ALP activity,[1]; A-83-01 treated colonies exposed to 2PD/LIF condition for selection,more than 50%
same,effect on EpiSCs under mESC culture condition supplemented with LIF,[1],form more compact and domed colonies that resemble mESC colony morphology and express ALP
same,cross inhibitory effect on the BMP receptors,[2],no cross inhibitory effect
Cc1c[nH]c(-c2cnc(NCCNc3ccc(C#N)cn3)nc2-c2ccc(Cl)cc2Cl)n1 [CHIR99021],effect of adding CHIR99021 to the 2PD/LIF condition,[1]; 3 μM CHIR99021,did not promote or capture the conversion of EpiSCs to mESC-like state
CCN(CC)CCCCNc1ncc2cc(-c3cc(OC)cc(OC)c3)c(NC(=O)NC(C)(C)C)nc2n1 [PD173074],effect of including PD173074 in medium,[3],didn't show further benefit
N[C@@H]1C[C@H]1c1ccccc1 [parnate],effect on EpiSCs under mESC culture condition supplemented with LIF,[1],form more compact and domed colonies that express ALP
same,EpiSCs that formed small and compact colonies,"[1]; four days of 2 μM parnate treatment, mESC growth condition",70-80%
same,cells that survived the selection as domed and ALP positive colonies,[1]; parnate-treated cells selected with 2PD/LIF,roughly 20%
